In US9588122B2, “Methods of treating cancer sensitive to anti-EGFR therapy and modifying treatment using peroxiredoxin 6 biomarker” (The Board of Trustees of the Leland Stanford Junior …, priority 2013, dated 2017):

Experiments:
A431 = test: Dose-dependent change in panel protein levels by western blot; assay type: cell-based, human; settings: for BAG4 protein level change / CAD17 protein level change / CBFB protein level change / Claudin 1 protein level change / ELAVL-1 protein level change / EpCAM protein level change / HSPG2 protein level change / PDCD4 protein level change / PRDX6 protein level change / QARS protein level change / S100A9 protein level change / SERPINE1 protein level change / SNX5 protein level change / TESTICAN2 protein level change / TNFAIP2 protein level change / TROP-2 protein level change: dose-dependent, 16 h; for changes in levels of the 16 validated proteins (immunoblots): erlotinib 100-1,000 nM, paclitaxel 10-100 nM; for BAG4 protein level change: key: (+) for increase; (−) for decrease; N.C.: (N.C) for no change; (~) for not detected; for CAD17 protein level change: key: (+) for increase; (−) for decrease; N.C.: (N.C) for no change; (~) for not detected; for CBFB protein level change: key: (+) for increase; (−) for decrease; N.C.: (N.C) for no change; (~) for not detected; for Claudin 1 protein level change: key: (+) for increase; (−) for decrease; N.C.: (N.C) for no change; (~) for not detected
Description: (§1) Lysates were sonicated for 10 minutes, heated at 95° C. for 10 minutes, and centrifuged for 15 minutes at 20,000×g. The supernatant was cleared through a 0.22-micron filter and protein concentration was determined (BCA, BioRad, Hercules, Calif.). Lysates were subject to SDS-PAGE and subsequent immunoblot. For in vivo experiments, mouse tumor pieces from 5 mice were pooled and suspended in RAF buffer and homogenized with a high-speed blender. The homogenate was centrifuged for 5 min at 200×g. The supernatant was sonicated on ice for 2 minutes and centrifuged for 1 hr at 12,000×g. The supernatant (soluble fraction) was cleared through a 0.22-micron filter and processed as above. The pellet (insoluble fraction) was resuspended in RAF buffer with 2% SDS and DTT, heated at 95° C. and sonicated prior to processing.

NSCLC cells = test: Biomarker profiles / PRDX6 shedding of treated NSCLC (Example 3); assay type: cell-based
NSCLC patients = test: PRDX6 levels in circulation of NSCLC patients before and after Tarceva; assay type: in vivo, human
Description: To validate if this temporal profile is replicated in a clinical setting, the plasma and/or sera from human NSCLC patients was studied before and after Tarceva® (erlotinib) treatment. […] Serum samples from MRN #48 (FIG. 10A) were taken before and after treatment with Tarceva®. […] Plasma samples were obtained before treatment, and at 2 weeks and 4 weeks post initiation of treatment.

H1975 xenografts = test: H1975 xenograft study (Example 2)
H1650 = test: Dose-dependent change in panel protein levels by western blot; settings: 16 h
Description: as §1

A431 xenografts [1] = test: A431 xenograft model (Example 1); assay type: in vivo, mice
Description: . […] . Control animals received vehicle alone (20 animals).

H23 = test: Dose-dependent change in panel protein levels by western blot; settings: 16 h
Description: as §1

H1975 = test: as above; settings: 16 h
Description: as §1

A431 xenografts [2] = test: A431 subcutaneous xenograft study (Example 2)
A431-ZDR tumors = test: Gefitinib-resistant A431-ZDR xenograft model (Example 1); assay type: in vivo, mice; settings: treated vs untreated controls
Description: Lysates were sonicated for 10 minutes, heated at 95° C. for 10 minutes, and centrifuged for 15 minutes at 20,000×g. The supernatant was cleared through a 0.22-micron filter and protein concentration was determined (BCA, BioRad, Hercules, Calif.). Lysates were subject to SDS-PAGE and subsequent immunoblot. For in vivo experiments, mouse tumor pieces from 5 mice were pooled and suspended in RAF buffer and homogenized with a high-speed blender. The homogenate was centrifuged for 5 min at 200×g. The supernatant was sonicated on ice for 2 minutes and centrifuged for 1 hr at 12,000×g. The supernatant (soluble fraction) was cleared through a 0.22-micron filter and processed as above. The pellet (insoluble fraction) was resuspended in RAF buffer with 2% SDS and DTT, heated at 95° C. and sonicated prior to processing. Serum from 5 mice was pooled and depleted using two MARS-3 columns (Agilent) connected in tandem with HPLC. The unbound fraction was concentrated to a final concentration of 2 mg/ml and processed as above.

A431 cells = settings: previously shown; read-out: IC50 of paclitaxel in A431 cells; cited from earlier work
[3] = patient MRN 9, Pre-Tarceva 1.07 +/− 0.03
[4] = patient MRN 48, Pre-Tarceva 0.27 +/− 0.01
[5] = patient MRN 91, Pre-Tarceva 0.65 +/− 0.09

## O=c1[nH]c2ccccc2n1C1CCN(Cc2ccc(-c3nc4cc5[nH]cnc5cc4nc3-c3ccccc3)cc2)CC1 [A6730]
A431; western blot
  BAG4 protein level change: +
  CAD17 protein level change: N.C.
  CBFB protein level change: +
  Claudin 1 protein level change: +
  ELAVL-1 protein level change: N.C.
  EpCAM protein level change: N.C.
  HSPG2 protein level change: N.C.
  PDCD4 protein level change: N.C.
  PRDX6 protein level change: N.C.
  QARS protein level change: +
  S100A9 protein level change: N.C.
  SERPINE1 protein level change: N.C.
  SNX5 protein level change: N.C.
  TESTICAN2 protein level change: N.C.
  TNFAIP2 protein level change: +
  TROP-2 protein level change: N.C.

## COc1cccc(-c2cc(=O)c3ccccc3o2)c1N [PD98059]
A431; AKT or MAPK pathway inhibition
  Claudin-1 expression: changes in expression
  panel proteins that showed a change in abundance: CAD17, PDCD4, S100A9, SERPINE1, and Testican-2
  panel proteins unchanged by treatment: ELAVL-1, EpCAM, HSPG2, TROP2, and SNX5
A431; western blot
  BAG4 protein level change: N.C.
  CAD17 protein level change: +
  CBFB protein level change: N.C.
  Claudin 1 protein level change: +
  ELAVL-1 protein level change: N.C.
  EpCAM protein level change: N.C.
  HSPG2 protein level change: N.C.
  PDCD4 protein level change: +
  PRDX6 protein level change: +
  QARS protein level change: N.C.
  S100A9 protein level change: +
  SERPINE1 protein level change: +
  SNX5 protein level change: N.C.
  TESTICAN2 protein level change: +
  TNFAIP2 protein level change: N.C.
  TROP-2 protein level change: N.C.

## C#Cc1cccc(Nc2ncnc3cc(OCCOC)c(OCCOC)cc23)c1 [erlotinib]
NSCLC cells; compared with Iressa treated cells, data not shown
  biomarker profiles by treated NSCLC cells: the same as Iressa
A431; western blot
  BAG4 protein level change: +
  CAD17 protein level change: +
  CBFB protein level change: +
  Claudin 1 protein level change: +
  ELAVL-1 protein level change: +
  EpCAM protein level change: +
  HSPG2 protein level change: +
  PDCD4 protein level change: +
  PRDX6 protein level change: +
  QARS protein level change: +
  S100A9 protein level change: +
  SERPINE1 protein level change: +
  SNX5 protein level change: −
  TESTICAN2 protein level change: +
  TNFAIP2 protein level change: +
  TROP-2 protein level change: +
A431
  changes in levels of the 16 validated proteins (immunoblots): mirrored the effect of gefitinib
NSCLC patients; at least three patients, pilot data
  circulating PRDX6 profile in patients with positive response: initial rise in circulating PRDX6 (2-4 weeks post-therapy) followed by a decline in PRDX6 levels by 8 weeks post-therapy
NSCLC patients; [3]
  PRDX6 level in circulation, Post-Tarceva (2 wks.): 1.63 +/− 0.05 ng PRDX6/Total Protein in circulation
  PRDX6 level in circulation, Post-Tarceva (3.5 to 4 wks.): 0.33 +/− 0.11 ng PRDX6/Total Protein in circulation
  PRDX6 level in circulation, Post-Tarceva (6.5-8 wks.): 0.45 +/− 0.05 ng PRDX6/Total Protein in circulation
NSCLC patients; [4]
  PRDX6 level in circulation, Post-Tarceva (2 wks.): 0.76 +/− 0.08 ng PRDX6/Total Protein in circulation
  PRDX6 level in circulation, Post-Tarceva (3.5 to 4 wks.): 0.42 +/− 0.02 ng PRDX6/Total Protein in circulation
NSCLC patients; [5]
  PRDX6 level in circulation, Post-Tarceva (3.5 to 4 wks.): 5.0 +/− 0.3 ng PRDX6/Total Protein in circulation
  PRDX6 level in circulation, Post-Tarceva (6.5-8 wks.): 0.46 +/− 0.18 ng PRDX6/Total Protein in circulation

## COc1cc2ncnc(Nc3ccc(F)c(Cl)c3)c2cc1OCCCN1CCOCC1 [gefitinib]
H1975 xenografts; 50 mg/kg daily oral, vs vehicle
  tumor response (tumor volumes): no response
H1975 xenografts; after treatment
  mean serum PRDX6 levels: increased
H1975 xenografts; models carrying Iressa-resistant NSCLC xenografts
  PRDX6 levels with respect to treatment: did not change
H1975 xenografts; vs vehicle, Day 4 (P=0.461), Day 10-14 (P=0.3404)
  difference in mean change from baseline in serum PRDX6: not statistically significant
H1975 xenografts; vs vehicle, Day 4 (P=0.7922), Day 10-14 (P=0.8849)
  difference in mean change from baseline in serum PRDX6 normalized to tumor volume: not significant
H1650
  BAG4 protein level change: N.C.
  CAD17 protein level change: +
  CBFB protein level change: +
  Claudin 1 protein level change: +
  ELAVL-1 protein level change: +
  EpCAM protein level change: +
  HSPG2 protein level change: +
  PDCD4 protein level change: +
  PRDX6 protein level change: +
  QARS protein level change: +
  S100A9 protein level change: N.C.
  SERPINE1 protein level change: +
  SNX5 protein level change: N.C.
  TESTICAN2 protein level change: N.C.
  TNFAIP2 protein level change: +
  TROP-2 protein level change: +
A431; 100 nM
  VAMP3, KLF5, and GLTSCR2 level: marginal increase
A431; 100, 500, and 1,000 nM, 16 hrs, western blot
  level of all other verified proteins: dose-dependent increase
A431; 500 and 1,000 nM vs 100 nM, 16 hrs, western blot
  ELAVL-1 response at higher doses: not amplified at higher doses
A431; western blot
  BAG4 protein level change: +
  CAD17 protein level change: +
  CBFB protein level change: +
  Claudin 1 protein level change: +
  ELAVL-1 protein level change: +
  EpCAM protein level change: +
  HSPG2 protein level change: +
  PDCD4 protein level change: +
  PRDX6 protein level change: +
  QARS protein level change: +
  S100A9 protein level change: +
  SERPINE1 protein level change: +
  SNX5 protein level change: −
  TESTICAN2 protein level change: +
  TNFAIP2 protein level change: +
  TROP-2 protein level change: +
A431 xenografts [1]; 50 mg/kg gefitinib vs untreated
  tumor size and growth: significantly smaller than those in untreated mice and grew at a slower rate
A431 xenografts [1]; A431 tumor lysates, immunoblot
  panel proteins whose in vivo change was concordant with in vitro experiments: 12 of the 16
H23
  BAG4 protein level change: +
  CAD17 protein level change: +
  CBFB protein level change: N.C.
  Claudin 1 protein level change: N.C.
  ELAVL-1 protein level change: N.C.
  EpCAM protein level change: N.C.
  HSPG2 protein level change: N.C.
  PDCD4 protein level change: N.C.
  PRDX6 protein level change: N.C.
  QARS protein level change: N.C.
  S100A9 protein level change: N.C.
  SERPINE1 protein level change: N.C.
  SNX5 protein level change: N.C.
  TNFAIP2 protein level change: +
  TROP-2 protein level change: N.C.
H1975
  BAG4 protein level change: N.C.
  CAD17 protein level change: N.C.
  CBFB protein level change: N.C.
  Claudin 1 protein level change: N.C.
  ELAVL-1 protein level change: N.C.
  EpCAM protein level change: N.C.
  HSPG2 protein level change: N.C.
  PDCD4 protein level change: N.C.
  PRDX6 protein level change: N.C.
  S100A9 protein level change: N.C.
  SERPINE1 protein level change: N.C.
  SNX5 protein level change: N.C.
  TESTICAN2 protein level change: N.C.
  TNFAIP2 protein level change: N.C.
  TROP-2 protein level change: N.C.
A431 xenografts [2]; 50 mg/kg daily oral, vs vehicle Day 7 P=0.0102, Day 11 P=0.002, Day 15 P=0.0001
  tumor growth: marked arrest in tumor growth
A431 xenografts [2]; between Day 0 and Day 15, change vs vehicle P<0.0001
  mean serum PRDX6 levels: decreased
A431 xenografts [2]; day 15, vs vehicle, P=0.2185
  tumor PRDX6 (tumor lysates): no statistically significant difference
A431 xenografts [2]; vs vehicle, P=0.0027
  difference in mean change from baseline in serum PRDX6 normalized to tumor volume: statistically significant
A431-ZDR tumors
  tumor growth rates: No differences in tumor growth rates

## CC(=O)O[C@H]1C(=O)[C@@]2(C)[C@H]([C@H](OC(=O)c3ccccc3)[C@]3(O)C[C@H](OC(=O)[C@H](O)[C@@H](NC(=O)c4ccccc4)c4ccccc4)C(C)=C1C3(C)C)[C@]1(OC(C)=O)CO[C@@H]1C[C@@H]2O [paclitaxel]
NSCLC cells; effective paclitaxel treatment on NSCLC
  shedding of PRDX6: failed to elicit a similar shedding of PRDX6
A431 cells
  IC50: ~10 nM
A431; western blot
  BAG4 protein level change: N.C.
  CAD17 protein level change: N.C.
  CBFB protein level change: N.C.
  Claudin 1 protein level change: N.C.
  ELAVL-1 protein level change: N.C.
  EpCAM protein level change: N.C.
  HSPG2 protein level change: N.C.
  PDCD4 protein level change: N.C.
  PRDX6 protein level change: N.C.
  QARS protein level change: N.C.
  S100A9 protein level change: N.C.
  SERPINE1 protein level change: N.C.
  SNX5 protein level change: N.C.
  TESTICAN2 protein level change: N.C.
  TNFAIP2 protein level change: N.C.
  TROP-2 protein level change: N.C.
A431
  changes in levels of the 16 validated proteins (immunoblots): none of the proteins tested demonstrated a change in abundance
